A short description of this data set: particle size distribution measured under wet conditions (Malvern Mastersizer 2000 SM). The format is physicochemical. The note with it: stiripentol particles of Example 1 after double recrystallization from toluene. The method, then:
This particle size distribution is measured under wet conditions.

The results in this text go back to patent publication US7750169B2 (Biocodex, priority 2008, dated 2010).

Turning to `CC(C)(C)C(O)/C=C/c1ccc2c(c1)OCO2` (stereo not shown) [stiripentol, 4-dimethyl-1-[(3,4-methylenedioxy)-phenyl]-1-penten-3-ol], the “Diameter of 90% of the particles (d90)” value is recorded as not above 250 μm.
